Key:
human CDK4/cyclin D3 = target: T1, human CDK4/cyclin D3 (Homo sapiens, UniProt P11802); assay: Inhibition of CDK4/cyclin D retinoblastoma kinase activity (Ki; % inhibition); format: biochemical; conditions: apparent Ki, CDK4/cyclin D3, Rb substrate
T1 construct: made in house; host or cells: insect cells co-infected with baculovirus vectors
Outline: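 Insect-cell-expressed CDK4 with truncated cyclin D3 (1-264), 5 nM, phosphorylating His-tagged Rb fragment (386-928) with 25 μM [32/33P]ATP at pH 7.4, 30 °C, 20 min (60 min for tight binders). Filter capture, phosphorimager read; % inhibition at 30 nM compound, Ki from competitive or tight-binding fits.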

CDK2/cyclin A = target: T2, CDK2/cyclin A (Homo sapiens, UniProt P24941); assay: Inhibition of CDK2/cyclin A retinoblastoma kinase activity (Ki; % inhibition); format: biochemical; conditions: apparent Ki, CDK2/cyclin A, Rb substrate
T2 construct: made in house; host or cells: CDK2: insect cells (baculovirus); cyclin A: E. coli
Outline: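 Radiometric filter assay of CDK2/proteolyzed cyclin A (baculovirus-expressed human CDK2, 10 or 19 nM) phosphorylating an Rb fragment with 25 μM [³²P/³³P]ATP in pH 7.4 HEPES, 2% DMSO, at 30 °C for 60 or 75 min under initial-rate conditions. Library compounds screened at 30 nM for % inhibition; apparent Ki from concentration series fit to competitive or tight-binding inhibition equations.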

HCT-116 cell line = assay: Inhibition of cell growth, MTT tetrazolium salt assay; format: cell-based; conditions: Homo sapiens, HCT-116, 120 h; MTT, three to five days
Outline: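 Cells in McCoy's 5A medium were given 4 h before compound addition in 0.5% (v/v) DMSO, then incubated 3–5 days at 37 °C, 5% CO2. After 4 h with 0.2 mg/mL MTT, DMSO-solubilized formazan was read at 540 nm; 50% and 90% growth-inhibitory concentrations came from semi-log plots against vehicle controls.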

[1] = target: T3, phosphorylated LCK kinase (Homo sapiens, UniProt P06239, C224D/P223M); assay: Inhibition of phosphorylated LCK tyrosine kinase activity (coupled spectrophotometric assay); format: biochemical; conditions: read-out: P-LCK % Inhibition at 1 μM
T3 construct: starting from amino acid 223 to the end of the protein at amino acid 509; made in house; host or cells: insect cells
T3 sequence (P06239 223-509 P223M/C224D): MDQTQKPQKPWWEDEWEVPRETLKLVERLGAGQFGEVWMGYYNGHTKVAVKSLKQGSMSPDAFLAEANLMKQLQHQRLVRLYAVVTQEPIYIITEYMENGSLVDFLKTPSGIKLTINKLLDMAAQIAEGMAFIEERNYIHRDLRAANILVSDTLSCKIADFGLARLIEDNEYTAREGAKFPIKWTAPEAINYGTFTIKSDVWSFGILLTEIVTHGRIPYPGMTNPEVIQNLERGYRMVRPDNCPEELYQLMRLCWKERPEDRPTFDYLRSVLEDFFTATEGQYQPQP
Protocol: (§1) Cloning, expression and purification of the cytosolic domain of FGFR1 tyrosine kinase (amino acids 456-766) containing three amino acid substitutions (L457V, C488A, and C584S) were conducted as previously described (Mohammadi, M., Schiessinger, J., & Hubbard, S. R. Cell, 86, (1996) 577-587). This domain was expressed in Sf9 insect cells using a baculovirus expression vector, and protein was purified using conventional techniques. The LCK tyrosine kinase was expressed in insect cells as an N-terminal deletion starting from amino acid 223 to the end of the protein at amino acid 509. The N-terminus of the protein also had two amino acid substitutions, P223M and C224D. Kinases were purified using conventional chromatographic methods.
(§2) Tyrosine kinase activity was measured using a coupled, continuous spectrophotometric assay, in which production of phosphorylated poly(Glu,Tyr; 4:1) substrate and ADP is coupled to the pyruvate kinase-catalyzed transfer of a phosphate from phosphoenolpyruvate to ADP, with generation of pyruvate and regeneration of ATP. Pyruvate production is in turn coupled to the lactate dehydrogenase-catalyzed reduction of pyruvate to form lactate, with concomitant conversion of NADH to NAD^+. Loss of NADH is monitored by measuring absorbance at 340 nm (see e.g., Technikova-Dobrova et al., “Spectrophotometric Determination of Functional Characteristics of Protein Kinases with Coupled Enzymatic Assay,” FEBS Letters, 292 (1991), pp. 69-72). Enzyme activity was measured in the presence of 200 mM HEPES (pH 7.5), 2 mM phosphoenolpyruvate, 0.3 mM NADH, 20 mM MgCl2, 100 μM ATP, 5 mM DTT, 5.1 or 25 mM poly (Glu,Tyr) 4:1 for P-FGF or P-LCK assays, respectively, and 15 units/mL each of pyruvate kinase and lactate dehydrogenase. Phosphorylated FGF receptor kinase was present at 100 nM and phosphorylated LCK kinase was present at 50 nM. Assays were performed under initial rate conditions at 37° C., and rates were corrected for any background rate measured in the absence of enzyme. Percent inhibition was calculated relative to control enzyme assayed in the presence of 2% (v/v) DMSO.

[2] = target: T4, Phosphorylated FGF receptor kinase (FGFR1 cytosolic domain) (Homo sapiens, UniProt P11362, C488A/C584S/L457V); assay: Inhibition of phosphorylated FGF receptor tyrosine kinase activity (coupled spectrophotometric assay); format: biochemical; conditions: read-out: P-FGF % Inhibition at 1 μM
T4 construct: FGFR1 tyrosine kinase (amino acids 456-766); made in house; host or cells: Sf9 insect cells (baculovirus)
T4 sequence (P11362 456-766 L457V/C488A/C584S): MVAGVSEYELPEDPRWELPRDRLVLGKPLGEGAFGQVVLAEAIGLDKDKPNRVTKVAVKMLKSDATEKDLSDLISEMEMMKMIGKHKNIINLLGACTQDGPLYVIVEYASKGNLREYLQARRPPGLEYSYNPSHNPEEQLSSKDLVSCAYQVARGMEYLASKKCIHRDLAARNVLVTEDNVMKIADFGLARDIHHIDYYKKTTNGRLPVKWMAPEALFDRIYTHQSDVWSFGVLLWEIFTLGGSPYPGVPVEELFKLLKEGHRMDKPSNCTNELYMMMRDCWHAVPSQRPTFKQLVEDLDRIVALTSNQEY
Protocol: as §1, §2

[3] = target: T5, human CDK1 (cdc2)/cyclin B (Homo sapiens, UniProt P06493); assay: Inhibition of CDK1 (cdc2)/cyclin B histone H1 kinase activity; format: biochemical; conditions: histone H1 substrate
T5 construct: purchased New England Biolabs (Beverly, Mass.)
T5 sequence (P06493 whole entry): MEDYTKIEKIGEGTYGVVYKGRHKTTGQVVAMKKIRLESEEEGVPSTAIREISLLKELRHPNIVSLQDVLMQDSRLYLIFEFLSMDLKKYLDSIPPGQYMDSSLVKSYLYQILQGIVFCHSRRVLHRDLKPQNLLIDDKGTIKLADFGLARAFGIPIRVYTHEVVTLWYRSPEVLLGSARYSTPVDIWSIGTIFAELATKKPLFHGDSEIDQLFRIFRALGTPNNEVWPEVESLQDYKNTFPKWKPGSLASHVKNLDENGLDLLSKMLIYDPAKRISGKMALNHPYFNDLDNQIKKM
T5 sequence (P14635 whole entry partner): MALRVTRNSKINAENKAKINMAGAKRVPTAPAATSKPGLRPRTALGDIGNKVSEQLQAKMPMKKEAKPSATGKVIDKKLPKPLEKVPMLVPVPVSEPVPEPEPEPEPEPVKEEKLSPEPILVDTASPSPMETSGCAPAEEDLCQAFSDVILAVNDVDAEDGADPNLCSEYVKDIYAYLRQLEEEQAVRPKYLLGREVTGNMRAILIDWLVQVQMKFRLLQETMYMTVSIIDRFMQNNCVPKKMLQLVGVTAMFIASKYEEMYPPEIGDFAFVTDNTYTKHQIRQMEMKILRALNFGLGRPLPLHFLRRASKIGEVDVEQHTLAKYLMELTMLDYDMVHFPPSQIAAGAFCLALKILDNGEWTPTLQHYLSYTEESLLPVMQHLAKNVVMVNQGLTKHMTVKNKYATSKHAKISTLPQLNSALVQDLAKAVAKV
Protocol: Cyclin-dependent kinase activity was measured by quantifying the enzyme-catalyzed, time-dependent incorporation of radioactive phosphate from [^32P]ATP or [^33P]ATP into a protein substrate. Unless noted otherwise, assays were performed in 96-well plates in a total volume of 50 μL, in the presence of 10 mM HEPES (N-[2-hydroxyethyl]piperazine-N′-[2-ethanesulfonic acid]) (pH 7.4), 10 mM MgCl2, 25 μM adenosine triphosphate (ATP), 1 mg/mL ovalbumin, 5 μg/mL leupeptin, 1 mM dithiothreitol, 10 mM β-glycerophosphate, 0.1 mM sodium vanadate, 1 mM sodium fluoride, 2.5 mM ethylene glycol-bis(β-aminoethyl ether)-N,N,N′N′-tetraacetic acid (EGTA), 2% (v/v) dimethylsulfoxide, and 0.03-0.4 μCi [^32/33P]ATP per reaction. Reactions were initiated with enzyme, incubated at 30° C., and terminated after 20 minutes by the addition of ethylenediaminetetraacetic acid (EDTA) to 250 mM. The phosphorylated substrate was then captured on a nitrocellulose or phosphocellulose membrane using a 96-well filtration manifold, and unincorporated radioactivity was removed by repeated washing with 0.85% phosphoric acid. Radioactivity was quantified by exposing the dried membranes to a phosphorimager.
Compounds from combinatorial libraries were screened from 96-well plates for % inhibition of CDK activity at 30 nM theoretical compound concentration. Inhibition was measured relative to control wells that contained all reaction components including 2% (v/v) DMSO but no compound, after subtraction of background radioactivity measured in the absence of enzyme. Apparent Ki values of discrete compounds were measured by assaying enzyme activity in the presence of different inhibitor compound concentrations and subtracting the background radioactivity measured in the absence of enzyme. The kinetic parameters (kcat, Km for ATP) were measured for each enzyme under the usual assay conditions by determining the dependence of initial rates on ATP concentration. Inhibition data were fit to an equation for competitive inhibition using Kaleidagraph (Synergy Software), or were fit to an equation for competitive tight-binding inhibition using the software KineTic (BioKin, Ltd.).
The complex of human CDK1 (cdc2) and cyclin B was purchased from New England Biolabs (Beverly, Mass.). Alternatively, a CDK1/glutathione-S-transferase-cyclin B1 complex was purified using glutathione affinity chromatography from insect cells that had been co-infected with the corresponding baculovirus expression vectors. The assay was executed as described above at 30° C. using 2.5 units of cdc2/cyclin B, 10 μg Histone H1 protein, and 0.1-0.3 μCi [^32/33P]ATP per assay. Phosphorylated histone substrate was captured by microfiltration on a phosphocellulose P81 membrane and quantified using a phosphorimager as described above. Ki values were measured using the described curve-fitting programs.

T1 sequence (P11802 whole entry): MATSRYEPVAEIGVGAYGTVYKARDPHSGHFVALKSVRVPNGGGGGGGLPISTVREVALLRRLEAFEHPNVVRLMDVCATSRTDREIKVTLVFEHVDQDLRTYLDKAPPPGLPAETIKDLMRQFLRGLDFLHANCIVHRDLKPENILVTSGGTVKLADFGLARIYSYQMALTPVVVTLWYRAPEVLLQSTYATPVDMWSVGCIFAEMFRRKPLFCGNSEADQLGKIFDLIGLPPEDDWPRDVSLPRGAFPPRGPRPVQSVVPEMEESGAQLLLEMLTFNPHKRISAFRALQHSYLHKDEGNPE
T1 sequence (P30281 1-264 partner limits assumed): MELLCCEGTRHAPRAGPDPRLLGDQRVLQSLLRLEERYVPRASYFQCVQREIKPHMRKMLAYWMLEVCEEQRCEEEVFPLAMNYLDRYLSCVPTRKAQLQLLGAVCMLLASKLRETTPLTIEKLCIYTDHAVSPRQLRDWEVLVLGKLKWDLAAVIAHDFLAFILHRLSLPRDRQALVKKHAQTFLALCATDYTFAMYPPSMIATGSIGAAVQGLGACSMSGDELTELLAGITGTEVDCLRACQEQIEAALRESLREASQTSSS

SMILES	Ki (human CDK4/cyclin D3)	Ki (CDK2/cyclin A)	IC50 (HCT-116 cell line)	inhibition at 1 µM [1]	inhibition at 1 µM [2]	Ki [3]
CC(CCCC(C)(C)O)NC(=O)c1ccc(Nc2nc(N)c(C(=O)c3c(F)cccc3F)s2)cc1 (centres unmarked) [Example A5, 4-[4-Amino-5-(2,6-difluoro-benzoyl)-thiazol-2-ylamino]-N-(6-hydroxy-6-methyl-hept-2-yl)-benzamide]	66 nM	72 nM	1200 nM	3%	5%	
CN(C)CCN(C)C(=O)c1ccc(Nc2nc(N)c(C(=O)c3c(F)cccc3F)s2)cc1 [Example A3, 4-[4-Amino-5-(2,6-difluoro-benzoyl)-thiazol-2-ylamino]-N-(2-dimethylamino-ethyl)-N-methyl-benzamide]	21 nM	170 nM	750 nM	5%	7%	
CCN1CCCC1CNC(=O)c1ccc(Nc2nc(N)c(C(=O)c3c(F)cccc3F)s2)cc1 (centres unmarked) [Example A11, 4-[4-Amino-5-(2,6-difluoro-benzoyl)-2-ylamino]-N-(1-ethyl-pyrrolidin-2RS-ylmethyl)-benzamide]	14 nM	82 nM	170 nM	6%		
Nc1nc(Nc2ccc(C(=O)Nc3ccc4c(c3)OCCO4)cc2)sc1C(=O)c1c(F)cccc1F [Example A17, 4-[4-Amino-5-(2,6-difluoro-benzoyl)-thiazol-2-ylamino]-N-(2,3-dihydro-benzo[1,4]dioxin-6-yl)-benzamide]	26 nM	51 nM	100 nM	0%	0%	
C[C@H](CNC(=O)c1ccc(Nc2nc(N)c(C(=O)c3c(F)cccc3F)s2)cc1)N(C)C [Example A44, 4-[4-Amino-5-(2,6-difluoro-benzoyl)-thiazol-2-ylamino]-N-(2R-dimethylamino-propyl)-benzamide]	10 nM	120 nM	130 nM			72 nM

Other lines, results leading:

Ki (human CDK4/cyclin D3)	Ki (CDK2/cyclin A)	IC50 (HCT-116 cell line)	inhibition at 1 µM [1]	inhibition at 1 µM [2]	Ki [3]	SMILES
12 nM	27 nM	140 nM	5%	5%		Nc1nc(Nc2ccc(C(=O)Nc3ccccc3)cc2)sc1C(=O)c1c(F)cccc1F [Example A9, 4-[4-Amino-5-(2,6-difluoro-benzoyl)-thiazol-2-ylamino]-N-phenyl-benzamide]
13 nM	62 nM	94 nM	0%	0%		CC(=O)N(C)c1ccc(NC(=O)c2ccc(Nc3nc(N)c(C(=O)c4c(F)cccc4F)s3)cc2)cc1 [Example A25]
8 nM	3.2 nM	140 nM	4%	8%		Nc1nc(Nc2ccc(C(=O)NCCNc3ccccc3)cc2)sc1C(=O)c1c(F)cccc1F [Example A2, 4-[4-Amino-5-(2,6-difluoro-benzoyl)-thiazol-2-ylamino]-N-(2-phenylamino-ethyl)-benzamide]
